According to patent publication US20070281992A1, “COMBINATION OF GYRASE B INHIBITORS AND PROTEIN SYNTHESIS INHIBITORS AND USES THEREOF” (priority 2006, published 2007):
Read-outs that look alike come from different tables or passages of the source.

Key:
Format in all cases: cell-based
[1] = test system: Methicillin-Resistant Staphylococcus aureus Isolates; assay: MIC assay (NCCLS broth dilution), MRSA clinical isolates; details: Staphylococcus aureus; for MIC: read-out: Minimal Inhibitory Concentration
Experimental: (§1) Antibiotics: novobiocin, tetracycline, minocycline, oxacillin, and vancomycin were all purchased from Sigma-Aldrich. Linezolid was obtained from Pfizer, Inc. Novobiocin/tetracycline and novobiocin/minocycline were tested in a 2.5:1 ratio to mimic the serum levels. (Vavra, J. J., 1967, Development of resistance to novobiocin, tetracycline, and novobiocin-tetracycline combinations in Staphylococcus aureus populations, J. Bacteriol 93(3):801). Compounds were tested across a concentration range consisting of 11 two-fold serial dilutions of test agent.
(§2) Stock solutions were prepared in sterile deionized water; novobiocin stock concentration was 1600 μg/mL and all other drugs stock solutions were prepared at 640 μg/mL. The stock solutions were allowed to sit at room temperature for one hour to auto-sterilize prior to use in the test. All compounds were in solution in water. The control agent was vancomycin hydrochloride, Sigma Chemical Lot # 015K0825.
(§3) The test organisms for the assay were 52 MSSA, 52 MRSA, 8 VISA, 7 VISE, and 3 LRSA isolates. Quality control strains included Staphylococcus aureus 0100 (ATCC 29213) and Enterococcus faecalis (ATCC 29212).
(§4) The MIC assay was performed according to published NCCLS guidelines. (National Committee for Clinical Laboratory Standards, Methods for Dilution Antimicrobial Susceptibility Tests for Bacteria that Grow Aerobically; Approved Standard-Sixth Edition, NCCLS Document M7-A6 [ISBN 1-56238-486-4], NCCLS, 940 West Valley Road, Suite 1400, Wayne, Pa. 19087-1898 USA, 2003). The test medium was Mueller Hinton II Broth for all organisms.

[2] = test system: Linezolid-Resistant Staphylococcus aureus Isolates; assay: MIC assay (NCCLS broth dilution), LRSA isolates; details: for MIC: read-out: Minimal Inhibitory Concentration
Experimental: as §1, §2, §3, §4

[3] = test system: Unconfirmed Vancomycin-intermediate Staphylococcus epidermidis Isolates; assay: MIC assay (NCCLS broth dilution), unconfirmed VISE isolates; details: Staphylococcus epidermidis, read-out: Minimal Inhibitory Concentration
Experimental: as §1, §2, §3, §4

[4] = 52 MRSA isolates, combinations at 2.5:1, given as NB/partner

Cc1onc(-c2ccccc2)c1C(=O)N[C@@H]1C(=O)N2[C@@H]1SC(C)(C)[C@@H]2C(=O)O [OX, oxacillin]
>32 µg/mL: MIC Range ([2]; 3 LRSA isolates, combinations at 2.5:1)
8 µg/mL: MIC ([1]; MRSA isolate 768, 22FEB06) | MIC ([1]; MRSA isolate 773, 24FEB06) | MIC ([1]; MRSA isolate 1004, 24FEB06) | MIC ([1]; MRSA isolate 1016, 22FEB06) | MIC ([1]; MRSA isolate 1022, 22FEB06) | MIC ([1]; MRSA isolate 1138, 22FEB06)
32 µg/mL: MIC ([1]; MRSA isolate 757, 24FEB06) | MIC ([1]; MRSA isolate 763, 22FEB06) | MIC ([1]; MRSA isolate 772, 22FEB06) | MIC ([1]; MRSA isolate 774, 24FEB06) | MIC ([1]; MRSA isolate 777, 24FEB06) | MIC ([1]; MRSA isolate 886, 24FEB06) | MIC ([1]; MRSA isolate 1010, 22FEB06) | MIC ([1]; MRSA isolate 1013, 22FEB06) | MIC ([1]; MRSA isolate 1014, 22FEB06) | MIC ([1]; MRSA isolate 1015, 22FEB06) | MIC ([1]; MRSA isolate 1021, 22FEB06) | MIC ([1]; MRSA isolate 1135, 22FEB06) | MIC ([1]; MRSA isolate 1136, 22FEB06) | MIC ([1]; MRSA isolate 1222, 03MAR06) | MIC ([1]; MRSA isolate 1222, 24FEB06) | MIC ([1]; MRSA isolate 1730, 24FEB06) | MIC ([1]; MRSA isolate 2011, 24FEB06) | MIC50 [1, 4] | MIC ([3]; Unconfirmed VISE isolate 2026, 03MAR06)
> 32 µg/mL: MIC ([1]; MRSA isolate 758, 03MAR06) | MIC ([1]; MRSA isolate 758, 24FEB06) | MIC ([1]; MRSA isolate 760, 03MAR06) | MIC ([1]; MRSA isolate 760, 24FEB06) | MIC ([1]; MRSA isolate 765, 22FEB06) | MIC ([1]; MRSA isolate 766, 22FEB06) | MIC ([1]; MRSA isolate 771, 22FEB06) | MIC ([1]; MRSA isolate 775, 24FEB06) | MIC ([1]; MRSA isolate 776, 24FEB06) | MIC ([1]; MRSA isolate 778, 24FEB06) | MIC ([1]; MRSA isolate 887, 24FEB06) | MIC ([1]; MRSA isolate 888, 24FEB06) | MIC ([1]; MRSA isolate 889, 24FEB06) | MIC ([1]; MRSA isolate 1012, 22FEB06) | MIC ([1]; MRSA isolate 1137, 22FEB06) | MIC ([1]; MRSA isolate 1653, 03MAR06) | MIC ([1]; MRSA isolate 1661, 03MAR06) | MIC ([1]; MRSA isolate 1729, 03MAR06) | MIC ([1]; MRSA isolate 2009, 24FEB06) | MIC90 [1, 4] | MIC ([2]; Staphylococcus aureus, LRSA isolate 1651, 24FEB06) | MIC ([2]; Staphylococcus aureus, LRSA isolate 1652, 24FEB06) | MIC ([2]; Staphylococcus aureus, LRSA isolate 1725, 24FEB06) | MIC50 ([2]; Staphylococcus aureus, 3 LRSA isolates, combinations at 2.5:1) | MIC ([3]; Unconfirmed VISE isolate 2024, 09MAR06)
16 µg/mL: MIC ([1]; MRSA isolate 767, 22FEB06) | MIC ([1]; MRSA isolate 769, 22FEB06) | MIC ([1]; MRSA isolate 770, 22FEB06) | MIC ([1]; MRSA isolate 1017, 22FEB06) | MIC ([1]; MRSA isolate 1024, 22FEB06) | MIC ([1]; MRSA isolate 1025, 22FEB06) | MIC ([1]; MRSA isolate 1658, 03MAR06) | MIC ([1]; MRSA isolate 1659, 03MAR06) | MIC ([1]; MRSA isolate 2010, 24FEB06)
4 µg/mL: MIC ([1]; MRSA isolate 1023, 22FEB06) | MIC ([3]; Unconfirmed VISE isolate 2025, 09MAR06)
